Read-outs that look alike come from different tables or passages of the source. One block for each compound: values may come before it.
Columns and labels:
[1] = target: T1, S1P1 (Homo sapiens, UniProt P21453); assay: Receptor [35S] GTPγS Binding Assay, membranes from S1P1/CHO cells; assay type: biochemical; parameters: expressed in transfected cells; host or cells: S1P1/CHO cells; conditions: for S1P3/S1P1 GTPγS (ratio of S1P3 GTPγS EC50 to S1P1 GTPγS EC50): selectivity ratio calculated from Table B, * may be greater than reported value due to S1P3 assay limits
Description: (§1) Receptor [35S] GTPγS Binding Assays
(§2) Membranes prepared from S1P1/CHO cells or EDG3-Ga15-bla HEK293T cells were added to the compound plate (40 μl/well, final protein 3 μg/well) with MULTIDROP®. [^35S]GTP (1250 Ci/mmol, Perkin Elmer) was diluted in assay buffer: 20 mM HEPES, pH7.5, 10 mM MgCl2, 150 mM NaCl, 1 mM EGTA, 1 mM DTT, 10 μM GDP, 0.1% fatty acid free BSA, and 10 μg/ml Saponin to 0.4 nM. 40 μl of the [^35S] GTP solution was added to the compound plate with a final concentration of 0.2 nM. […] At the end of incubation, all the mixtures in the compound plate were transferred to a 384 well FB filter plates via GPCR robot system. […] 30 μl of MicroScint 20 scintillation fluid was added to each well for counting at Packard TOPCOUNT®.

[2] = target: T1, S1P1; assay: S1P1 Binding Assay (33P-S1P radioligand competition, membranes); parameters: expressed in transfected cells; host or cells: CHO cells; conditions: membranes from CHO cells expressing human S1P1; 0.03 nM 33P-S1P; rounded to two digits
Description: Membranes were prepared from CHO cells expressing human S1P1. Cells were dissociated in buffer containing 20 mM HEPES, pH 7.5, 50 mM NaCl, 2 mM EDTA and Protease Inhibitor cocktail (Roche), and disrupted on ice using the Polytron homogenizer. The homogenate was centrifuged at 20,000 rpm (48,000 G) and the supernatant was discarded. The membrane pellets were resuspended in buffer containing 50 mM HEPES, pH 7.5, 100 mM NaCl, 1 mM MgCl2, 2 mM EDTA and stored in aliquots at −80° C. after protein concentration determination.
Binding was performed for 45 minutes at room temperature, terminated by collecting the membranes onto GF/B filter plates, and radioactivity was measured by TOPCOUNT®. The competition data of the test compounds over a range of concentrations was plotted as percentage inhibition of radioligand specific binding.
The results in Table A were rounded to two digits.

[3] = target: T2, S1P3 (Homo sapiens, UniProt Q99500); assay: Receptor [35S] GTPγS Binding Assay, membranes from EDG3-Ga15-bla HEK293T cells; assay type: biochemical; conditions: * detection limit 31,000 nM or 62,000 nM
T2 construct: expressed in transfected cells; host or cells: EDG3-Ga15-bla HEK293T cells
Description: as §1, §2

[4] = system: circulating lymphocytes; assay: Blood Lymphocyte Reduction Assay (BLR) in Rodents; assay type: in vivo; conditions: Lewis rats, oral, vs vehicle (PEG300)
Description: Blood Lymphocyte Reduction Assay (BLR) in Rodents
Lewis rats were dosed orally with test article (as a solution or suspension in the vehicle) or vehicle alone (polyethylene glycol 300, “PEG300”). Blood was drawn at 4 hr by retro-orbital bleeding. Blood lymphocyte counts were determined on an ADVIA® 120 Hematology Analyzer (Siemens Healthcare Diagnostics). The results were measured as a reduction in the percentage of circulating lymphocytes as compared to the vehicle treated group at the 4 hr measurement.

[5] = membranes from S1P1/CHO cells, read-out: S1P1 GTPγS EC50

T1 sequence (P21453 whole entry): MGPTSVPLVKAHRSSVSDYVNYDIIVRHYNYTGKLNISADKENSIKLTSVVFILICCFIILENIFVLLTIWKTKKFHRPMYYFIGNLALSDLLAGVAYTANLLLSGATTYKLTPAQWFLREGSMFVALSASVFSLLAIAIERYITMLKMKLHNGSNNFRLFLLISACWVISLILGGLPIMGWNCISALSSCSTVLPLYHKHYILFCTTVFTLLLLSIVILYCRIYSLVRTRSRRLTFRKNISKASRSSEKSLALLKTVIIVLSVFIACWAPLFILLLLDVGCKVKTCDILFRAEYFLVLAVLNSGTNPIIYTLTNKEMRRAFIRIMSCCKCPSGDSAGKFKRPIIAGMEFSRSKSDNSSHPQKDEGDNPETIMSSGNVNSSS
T2 sequence (Q99500 whole entry): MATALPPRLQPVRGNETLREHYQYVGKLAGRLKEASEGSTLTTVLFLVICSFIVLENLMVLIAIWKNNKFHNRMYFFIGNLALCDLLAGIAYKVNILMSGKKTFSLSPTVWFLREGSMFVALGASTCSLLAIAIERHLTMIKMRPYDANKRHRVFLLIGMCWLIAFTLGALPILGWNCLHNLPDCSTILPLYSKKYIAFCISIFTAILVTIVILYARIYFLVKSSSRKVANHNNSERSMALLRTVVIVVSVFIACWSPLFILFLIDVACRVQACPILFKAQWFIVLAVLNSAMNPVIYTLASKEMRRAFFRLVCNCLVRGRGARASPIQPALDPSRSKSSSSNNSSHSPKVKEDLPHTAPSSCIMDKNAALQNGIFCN

- EC50 ([1]; read-out: S1P1 GTPγS EC50 value): 31000 nM
- S1P3/S1P1 GTPγS (ratio of S1P3 GTPγS EC50 to S1P1 GTPγS EC50) [1]: 2.3
- S1P3/S1P1 GTPγS (ratio of S1P3 GTPγS EC50 to S1P1 GTPγS EC50) ([1]; listed as Comp. 119): 2.3*
- IC50 [2]: 420 nM
- EC50 [3]: > 62000 nM
Structure (SMILES): CCCc1c(-c2nc(-c3ccc(CCN4CCC[C@H](C(=O)O)C4)cc3)no2)noc1-c1ccccc1 [Comparative Compound 119, (S)-1-(4-(5-(5-Phenyl-4-propylisoxazol-3-yl)-1,2,4-oxadiazol-3-yl)phenethyl)piperidine-3-carboxylic acid, reference compound]

Structure (SMILES): CCCc1c(-c2nc(-c3ccc(C(O)CN4CCC[C@H](C(=O)O)C4)cc3)no2)noc1-c1ccccc1 (stereo partly drawn) [Example 4, (3S)-1-(2-Hydroxy-2-(4-(5-(5-phenyl-4-propylisoxazol-3-yl)-1,2,4-oxadiazol-3-yl)phenyl)ethyl)piperidine-3-carboxylic acid]
- % Reduction in Lymphocytes at 4 hr. ([4]; dose 3 mg/kg): 71%

- IC50 [2]: 4.8 nM
Structure (SMILES): CCCc1c(-c2nc(-c3ccc(C(O)CN4CCOC(C(=O)O)C4)cc3)no2)noc1-c1ccccc1 (stereo not drawn) [Example 11, 4-(2-Hydroxy-2-(4-(5-(5-phenyl-4-propylisoxazol-3-yl)-1,2,4-oxadiazol-3-yl)phenyl)ethyl)morpholine-2-carboxylic acid]

Structure (SMILES): O=C(O)[C@H]1CCCN(C[C@@H](O)c2ccc(-c3noc(-c4onc(-c5ccccc5)c4C(F)(F)F)n3)cc2)C1 [Example 14, (S)-1-((S)-2-Hydroxy-2-(4-(5-(3-phenyl-4-(trifluoromethyl)isoxazol-5-yl)-1,2,4-oxadiazol-3-yl)phenyl)ethyl)piperidine-3-carboxylic acid]
- % Reduction in Lymphocytes at 4 hr. ([4]; dose 3 mg/kg): 83%

- EC50 [1, 5]: 320 nM
- S1P3/S1P1 GTPγS (ratio of S1P3 GTPγS EC50 to S1P1 GTPγS EC50) [1]: 3.8
- IC50 [2]: 28 nM
- EC50 [3]: 1200 nM
Structure (SMILES): CC(O)(CN1CCC[C@H](C(=O)O)C1)c1ccc(-c2noc(-c3onc(-c4ccccc4)c3C(F)(F)F)n2)cc1 (stereo partly drawn) [Example 17, (3S)-1-(2-Hydroxy-2-(4-(5-(3-phenyl-4-(trifluoromethyl)isoxazol-5-yl)-1,2,4-oxadiazol-3-yl)phenyl)propyl)piperidine-3-carboxylic acid]

Structure (SMILES): O=C(O)C[C@H]1CCCN(C[C@@H](O)c2ccc(-c3noc(-c4onc(-c5ccccc5)c4C(F)(F)F)n3)cc2)C1 [Example 18, 2-((3R)-1-(2-Hydroxy-2-(4-(5-(3-phenyl-4-(trifluoromethyl)isoxazol-5-yl)-1,2,4-oxadiazol-3-yl)phenyl)ethyl)piperidin-3-yl)acetic acid]
- % Reduction in Lymphocytes at 4 hr. ([4]; dose 1 mg/kg): 82%

- EC50 [1, 5]: 410 nM
- S1P3/S1P1 GTPγS (ratio of S1P3 GTPγS EC50 to S1P1 GTPγS EC50) [1]: 8.6
- IC50 [2]: 43 nM
- EC50 [3]: 3500 nM
Structure (SMILES): CCCc1c(-c2nc(-c3ccc(C(O)CN4CCCC(C(=O)N(CC)CC)C4)cc3)no2)noc1-c1ccccc1 (stereo not drawn) [Example 24, N,N-Diethyl-1-(2-hydroxy-2-(4-(5-(5-phenyl-4-propylisoxazol-3-yl)-1,2,4-oxadiazol-3-yl)phenyl)ethyl)piperidine-3-carboxamide]

- IC50 [2]: 14 nM
Structure (SMILES): O=C(O)[C@H]1CCCN(CC(O)c2ccc(-c3noc(-c4onc(-c5ccccc5)c4C(F)(F)F)n3)c(C(F)(F)F)c2)C1 (stereo partly drawn) [Example 26, (3S)-1-(2-Hydroxy-2-(4-(5-(3-phenyl-4-(trifluoromethyl)isoxazol-5-yl)-1,2,4-oxadiazol-3-yl)-3-(trifluoromethyl)phenyl)ethyl)piperidine-3-carboxylic acid]

- IC50 [2]: 14 nM
Structure (SMILES): O=C(O)CC1CN(CC(O)c2ccc(-c3noc(-c4onc(-c5ccccc5)c4C(F)(F)F)n3)cc2)C1 (stereo not drawn) [Example 27, 2-(1-(2-Hydroxy-2-(4-(5-(3-phenyl-4-(trifluoromethyl)isoxazol-5-yl)-1,2,4-oxadiazol-3-yl)phenyl)ethyl)azetidin-3-yl)acetic acid]

- IC50 [2]: 31 nM
Structure (SMILES): O=C(O)C1CN(CC(O)c2ccc(-c3noc(-c4onc(-c5ccccc5)c4C(F)(F)F)n3)cc2)CCO1 (stereo not drawn) [Example 28, 4-(2-Hydroxy-2-(4-(5-(3-phenyl-4-(trifluoromethyl)isoxazol-5-yl)-1,2,4-oxadiazol-3-yl)phenyl)ethyl)morpholine-2-carboxylic acid]

Structure (SMILES): O=C(O)CCC1CCCN(CC(O)c2ccc(-c3noc(-c4onc(-c5ccccc5)c4C(F)(F)F)n3)cc2)C1 (stereo not drawn) [Example 40, 3-(1-(2-Hydroxy-2-(4-(5-(3-phenyl-4-(trifluoromethyl)isoxazol-5-yl)-1,2,4-oxadiazol-3-yl)phenyl)ethyl)piperidin-3-yl)propanoic acid]
- % Reduction in Lymphocytes at 4 hr. ([4]; dose 5.5 mg/kg): 80%

Reference: US8399451B2, “Heterocyclic compounds” (Bristol-Myers Squibb Company, priority 2009, dated 2013)
